This assay deals with Swiss mice, Sarcoma 180 sc, mean tumor weight T/C. The assay can be described thus: NCI In Vivo Anticancer Drug Screen. Data for tumor model Sarcoma 180 (subcutaneous) in Swiss mice. The following applies: endpoint: mean tumor weight, higher = larger tumour. Summed up: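 Mice bearing transplanted tumors were treated with compound, and survival or tumor size was measured. Values are expressed as the treated-group measurement (T) divided by the vehicle-treated control measurement (C).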

Setting [1] is: dose: 10.0 mg/kg/injection, schedule: Q01DX007 (sc), vehicle: steriod suspending solution.
Where [2] appears, read: dose: 250.0 mg/kg/injection, schedule: Q01DX007 (ip), vehicle: carboxymethylcellulose (CMC).

SMILES strings stand for the structures. Values joined by “and” are separate entries in the source; they are usually repeats but may differ in a detail not shown here. Equal values may be shown once.

For orientation: T/C means the result in the treated group divided by that in the control group, in per cent.

Consider `CC(=O)OCC(=O)[C@@]1(O)CC[C@H]2[C@@H]3C[C@H](C)C4=CC(=O)C=C[C@]4(C)[C@H]3[C@@H](O)C[C@@]21C`, for which the T/C runs as follows: (dose: 7.5 mg/kg/injection, schedule: Q01DX007 (sc), vehicle: steriod suspending solution) 122 % of control; under setting [1], 59 % of control; (dose: 11.3 mg/kg/injection, schedule: Q01DX007 (sc), vehicle: steriod suspending solution) 93 % of control; (dose: 20.0 mg/kg/injection, schedule: Q01DX007 (sc), vehicle: steriod suspending solution) 55 % of control; (dose: 27.0 mg/kg/injection, schedule: Q01DX007 (sc), vehicle: steriod suspending solution) 41 % of control; (dose: 40.0 mg/kg/injection, schedule: Q01DX007 (sc), vehicle: steriod suspending solution) 34 % of control. In addition, the T/C by setting is: (dose: 44.4 mg/kg/injection, schedule: Q01DX007 (sc), vehicle: steriod suspending solution) 26 % of control; (dose: 66.6 mg/kg/injection, schedule: Q01DX007 (sc), vehicle: steriod suspending solution) 39 % of control; (dose: 100.0 mg/kg/injection, schedule: Q01DX007 (sc), vehicle: steriod suspending solution) 40 % of control.

Regarding `C=CCOc1ccc2c(c1)CC[C@@H]1[C@@H]2CC[C@]2(C)[C@@H](O)[C@H](O)C[C@@H]12`, the T/C (dose: 2.5 mg/kg/injection, schedule: Q01DX007 (sc), vehicle: steriod suspending solution) was 105 % of control; the T/C (dose: 5.0 mg/kg/injection, schedule: Q01DX007 (sc), vehicle: steriod suspending solution) was 120 % of control; the T/C under setting [1] was 82 % of control.

On to `CC(=O)[C@H]1CC[C@H]2[C@@H]3C[C@H](C)C4=CC(=O)CC[C@]4(C)[C@H]3C(=O)C[C@]12C`, for which the T/C is 72 % of control (dose: 25.0 mg/kg/injection, schedule: Q#A X014 (oral), vehicle: steriod suspending solution); 55 % of control (dose: 62.5 mg/kg/injection, schedule: Q#A X014 (oral), vehicle: steriod suspending solution); 86 % of control (dose: 110.0 mg/kg/injection, schedule: Q#A X014 (oral), vehicle: steriod suspending solution).

`O=C(CBr)c1ccc(Br)cc1`: the T/C reads like this: (dose: 7.5 mg/kg/injection, schedule: Q01DX007 (ip), vehicle: other) 63 % of control; (dose: 15.0 mg/kg/injection, schedule: Q01DX007 (ip), vehicle: other) 49 % of control and 73 % of control; (dose: 20.0 mg/kg/injection, schedule: Q01DX007 (ip), vehicle: other) 42 % of control.

As for `N#[N+]c1nc2ncnc(N)c2[nH]1`, the T/C is 66 % of control (dose: 6.25 mg/kg/injection, schedule: Q#A X014 (ip), vehicle: saline); 65 % of control (dose: 12.5 mg/kg/injection, schedule: Q#A X014 (ip), vehicle: saline); 86 % of control (dose: 25.0 mg/kg/injection, schedule: Q#A X014 (ip), vehicle: saline).

With `CC(=O)Nc1ccc2c(c1)Cc1cc(NC=O)ccc1-2`, the T/C (dose: 110.0 mg/kg/injection, schedule: Q01DX007 (ip), vehicle: carboxymethylcellulose (CMC)) is 54 % of control and 72 % of control; the T/C (dose: 165.0 mg/kg/injection, schedule: Q01DX007 (ip), vehicle: carboxymethylcellulose (CMC)) is 87 % of control; the T/C under setting [2] is 46 % of control; the T/C (dose: 375.0 mg/kg/injection, schedule: Q01DX007 (ip), vehicle: carboxymethylcellulose (CMC)) was 79 % of control.

As to `CNNCc1ccc(C(=O)NC(C)C)cc1`, the T/C (dose: 100.0 mg/kg/injection, schedule: Q01DX007 (ip), vehicle: saline) was 26 % of control; the T/C (dose: 125.0 mg/kg/injection, schedule: Q01DX007 (ip), vehicle: carboxymethylcellulose (CMC)) is 36 % of control; the T/C (dose: 148.0 mg/kg/injection, schedule: Q01DX007 (ip), vehicle: saline) is 22 % of control; the T/C (dose: 222.0 mg/kg/injection, schedule: Q01DX007 (ip), vehicle: saline) was 16 % of control; the T/C under setting [2] is 15 % of control; the T/C (dose: 333.0 mg/kg/injection, schedule: Q01DX007 (ip), vehicle: saline) was 16 % of control. The T/C (dose: 500.0 mg/kg/injection, schedule: Q01DX007 (ip), vehicle: saline) was 8 % of control.

`CCSc1nc(Cl)cc(Sc2nc(N)nc3nc[nH]c23)n1`: the T/C (dose: 9.0 mg/kg/injection, schedule: Q01DX007 (ip), vehicle: other) was 75 % of control; the T/C (dose: 18.0 mg/kg/injection, schedule: Q01DX007 (ip), vehicle: methylcellulose (MC)) was 91 % of control; the T/C (dose: 18.0 mg/kg/injection, schedule: Q01DX007 (ip), vehicle: other) was 116 % of control; the T/C (dose: 36.0 mg/kg/injection, schedule: Q01DX007 (ip), vehicle: methylcellulose (MC)) is 95 % of control; the T/C (dose: 72.0 mg/kg/injection, schedule: Q01DX007 (ip), vehicle: methylcellulose (MC)) is 76 % of control; the T/C (dose: 72.0 mg/kg/injection, schedule: Q01DX007 (ip), vehicle: other) is 32 % of control. Moreover, the T/C (dose: 124.0 mg/kg/injection, schedule: Q01DX007 (ip), vehicle: carboxymethylcellulose (CMC)) is 73 % of control; the T/C (dose: 144.0 mg/kg/injection, schedule: Q01DX007 (ip), vehicle: methylcellulose (MC)) was 44 % of control and 57 % of control; the T/C (dose: 188.0 mg/kg/injection, schedule: Q01DX007 (ip), vehicle: carboxymethylcellulose (CMC)) was 44 % of control; the T/C (dose: 277.0 mg/kg/injection, schedule: Q01DX007 (ip), vehicle: carboxymethylcellulose (CMC)) is 47 % of control; the T/C (dose: 281.0 mg/kg/injection, schedule: Q01DX007 (ip), vehicle: carboxymethylcellulose (CMC)) was 76 % of control; the T/C (dose: 288.0 mg/kg/injection, schedule: Q01DX007 (ip), vehicle: methylcellulose (MC)) is 52 % of control and 61 % of control. Further, the T/C by setting is: (dose: 422.0 mg/kg/injection, schedule: Q01DX007 (ip), vehicle: carboxymethylcellulose (CMC)) 35 % of control and 40 % of control; (dose: 435.0 mg/kg/injection, schedule: Q01DX007 (ip), vehicle: methylcellulose (MC)) 100 % of control; (dose: 630.0 mg/kg/injection, schedule: Q01DX007 (ip), vehicle: carboxymethylcellulose (CMC)) 37 % of control; (dose: 945.0 mg/kg/injection, schedule: Q01DX007 (ip), vehicle: carboxymethylcellulose (CMC)) 47 % of control.

Turning to `O=S(=O)(O)c1cccnc1`, the T/C reads like this: (dose: 17.47 mg/kg/injection, schedule: Q#A X014 (ip), vehicle: carboxymethylcellulose (CMC)) 70 % of control; (dose: 31.25 mg/kg/injection, schedule: Q#A X014 (ip), vehicle: carboxymethylcellulose (CMC)) 64 % of control; (dose: 34.94 mg/kg/injection, schedule: Q#A X014 (ip), vehicle: carboxymethylcellulose (CMC)) 80 % of control; (dose: 62.5 mg/kg/injection, schedule: Q#A X014 (ip), vehicle: carboxymethylcellulose (CMC)) 105 % of control; (dose: 69.87 mg/kg/injection, schedule: Q#A X014 (ip), vehicle: carboxymethylcellulose (CMC)) 89 % of control; (dose: 125.0 mg/kg/injection, schedule: Q#A X014 (ip), vehicle: carboxymethylcellulose (CMC)) 63 % of control. Moreover, the T/C was 97 % of control (dose: 139.75 mg/kg/injection, schedule: Q#A X014 (ip), vehicle: carboxymethylcellulose (CMC)) and 124 % of control (dose: 250.0 mg/kg/injection, schedule: Q#A X014 (ip), vehicle: carboxymethylcellulose (CMC)).

With `CN(Cc1cnc2nc(NCNC(=O)C3=C(O)[C@@]4(O)C(=O)C5=C(O)c6c(O)cccc6[C@@](C)(O)[C@H]5C[C@H]4[C@H](N(C)C)C3=O)nc(N)c2n1)c1ccc(C(=O)NC(CCC(=O)O)C(=O)O)cc1` (some centres undefined), the T/C (dose: 1.5 mg/kg/injection, schedule: Q01DX007 (ip), vehicle: saline) is 76 % of control; the T/C (dose: 3.0 mg/kg/injection, schedule: Q01DX007 (ip), vehicle: saline) is 52 % of control; the T/C (dose: 6.0 mg/kg/injection, schedule: Q01DX007 (ip), vehicle: saline) is 16 % of control.

Consider `Cc1ccccc1N(C=O)c1ccccc1C`, for which the T/C is, setting by setting: (dose: 120.0 mg/kg/injection, schedule: Q01DX007 (ip), vehicle: methylcellulose (MC)) 164 % of control; (dose: 200.0 mg/kg/injection, schedule: Q01DX007 (ip), vehicle: methylcellulose (MC)) 150 % of control; (dose: 1000.0 mg/kg/injection, schedule: Q01DX007 (ip), vehicle: methylcellulose (MC)) 104 % of control.

With `CCC(=O)O[C@H]1CC[C@H]2[C@@H]3CCC4=CC(=O)CC[C@]4(C)[C@H]3[C@@H](O)C[C@]12C`, the T/C was 96 % of control (dose: 12.5 mg/kg/injection, schedule: Q#A X014 (sc), vehicle: steriod suspending solution); 88 % of control (dose: 125.0 mg/kg/injection, schedule: Q#A X014 (sc), vehicle: steriod suspending solution); 94 % of control (dose: 250.0 mg/kg/injection, schedule: Q#A X014 (sc), vehicle: steriod suspending solution).

For `Nc1cccc2c(=O)[nH][nH]c(=O)c12`, the T/C runs as follows: (dose: 62.5 mg/kg/injection, schedule: Q01DX007 (ip), vehicle: water) 119 % of control; (dose: 125.0 mg/kg/injection, schedule: Q01DX007 (ip), vehicle: water) 118 % of control; (dose: 250.0 mg/kg/injection, schedule: Q01DX007 (ip), vehicle: water) 61 % of control; (dose: 375.0 mg/kg/injection, schedule: Q01DX007 (ip), vehicle: water) 85 % of control.

Source of the values: PubChem BioAssay AID342 (DTP/NCI, 2004).
